# Where a name gives a salt, the structure may show the parent alone. Numbers after ± are expanded uncertainties.
# Conditions: 101.33 kPa, Liquid
# [1] = 293.15 K, Falling or rolling sphere viscometry
# [2] = 298.15 K, Falling or rolling sphere viscometry
# [3] = 303.15 K, Falling or rolling sphere viscometry
# [4] = 308.15 K, Falling or rolling sphere viscometry
# [5] = 313.15 K, Falling or rolling sphere viscometry
# [6] = 318.15 K, Falling or rolling sphere viscometry
# [7] = 323.15 K, Falling or rolling sphere viscometry
# [8] = 328.15 K, Falling or rolling sphere viscometry
# [9] = 333.15 K, Falling or rolling sphere viscometry
# [10] = 338.15 K, Falling or rolling sphere viscometry
# [11] = 343.15 K, Falling or rolling sphere viscometry
SMILES,mass density (293.15 K) [kg/m3],viscosity [1] [mPa·s],mass density (298.15 K) [kg/m3],viscosity [2] [mPa·s],mass density (303.15 K) [kg/m3],viscosity [3] [mPa·s],mass density (308.15 K) [kg/m3],viscosity [4] [mPa·s],mass density (313.15 K) [kg/m3],viscosity [5] [mPa·s],mass density (318.15 K) [kg/m3],viscosity [6] [mPa·s],mass density (323.15 K) [kg/m3],viscosity [7] [mPa·s],mass density (328.15 K) [kg/m3],viscosity [8] [mPa·s],mass density (333.15 K) [kg/m3],viscosity [9] [mPa·s],mass density (338.15 K) [kg/m3],mass density (343.15 K) [kg/m3],also measured
CCCC(=O)OCC [ethyl butanoate],876.91 ± 6.4,0.662 ± 0.01,874.42 ± 6.5,0.62 ± 0.009,870.13 ± 6.5,0.583 ± 0.009,866.21 ± 6.5,0.549 ± 0.009,864.31 ± 6.5,0.519 ± 0.009,861.32 ± 6.5,0.491 ± 0.009,858.43 ± 6.5,0.465 ± 0.009,854.44 ± 6.5,0.442 ± 0.009,853.89 ± 6.5,0.42 ± 0.009,851.32 ± 6.6,850.04 ± 6.6,viscosity [10]: 0.4 ± 0.009 mPa·s; viscosity [11]: 0.382 ± 0.009 mPa·s
CCCCOC(C)=O [butyl ethanoate],881.04 ± 5.9,0.732 ± 0.01,876.45 ± 5.9,0.677 ± 0.01,871.3 ± 5.9,0.628 ± 0.009,866.25 ± 5.9,0.585 ± 0.009,861.84 ± 6,0.546 ± 0.009,857.32 ± 6,0.512 ± 0.009,854.61 ± 6,0.481 ± 0.009,850.78 ± 6,0.453 ± 0.009,847.92 ± 6,0.428 ± 0.009,844.39 ± 6,841.77 ± 6.1,viscosity [10]: 0.405 ± 0.009 mPa·s; viscosity [11]: 0.384 ± 0.009 mPa·s
CCCCCCOC(C)=O [hexyl ethanoate],872.9 ± 3.4,1.118 ± 0.013,867.3 ± 3.5,1.036 ± 0.012,862.6 ± 3.6,0.962 ± 0.012,858.33 ± 3.6,0.895 ± 0.011,854.9 ± 3.7,0.836 ± 0.011,848.84 ± 3.8,0.782 ± 0.011,844.21 ± 3.9,0.733 ± 0.01,839.64 ± 4,0.689 ± 0.01,835.15 ± 4,0.649 ± 0.01,831.4 ± 4.1,826.3 ± 4.2,viscosity [10]: 0.612 ± 0.01 mPa·s; viscosity [11]: 0.579 ± 0.01 mPa·s
CCOC(C)=O [ethyl acetate],900.48 ± 2.9,0.443 ± 0.009,894.81 ± 3,0.421 ± 0.009,887.14 ± 3.1,0.399 ± 0.009,882.21 ± 3.2,0.381 ± 0.009,878.92 ± 3.3,0.363 ± 0.009,874.51 ± 3.4,0.346 ± 0.008,870.39 ± 3.4,0.33 ± 0.008,867.13 ± 3.5,0.315 ± 0.008,864.72 ± 3.5,0.301 ± 0.008,861.41 ± 3.6,858.36 ± 3.6,viscosity [10]: 0.288 ± 0.008 mPa·s; viscosity [11]: 0.275 ± 0.008 mPa·s
CCOC(=O)CC(C)C [ethyl 3-methylbutanoate],866.23 ± 6.5,0.805 ± 0.011,864.01 ± 6.5,0.752 ± 0.011,860.12 ± 6.5,0.703 ± 0.011,855.98 ± 6.5,0.659 ± 0.01,851.79 ± 6.6,0.62 ± 0.01,847.39 ± 6.6,0.581 ± 0.01,846.24 ± 6.6,0.544 ± 0.01,842.35 ± 6.6,0.516 ± 0.009,840.07 ± 6.6,0.485 ± 0.009,836.31 ± 6.7,833.62 ± 6.7,viscosity [10]: 0.457 ± 0.009 mPa·s; viscosity [11]: 0.431 ± 0.009 mPa·s
CCCCOC(=O)CCC [butyl butanoate],872.45 ± 3.4,0.948 ± 0.011,869.14 ± 3.5,0.876 ± 0.011,866.1 ± 3.5,0.812 ± 0.011,862.19 ± 3.6,0.755 ± 0.01,858.94 ± 3.6,0.705 ± 0.01,854.31 ± 3.7,0.659 ± 0.01,851.47 ± 3.8,0.618 ± 0.01,848.01 ± 3.8,0.581 ± 0.009,846.22 ± 3.8,0.548 ± 0.009,844.03 ± 3.9,841.47 ± 3.9,viscosity [10]: 0.517 ± 0.009 mPa·s; viscosity [11]: 0.486 ± 0.009 mPa·s
CC(=O)OCCC(C)C [3-methylbutyl ethanoate],878.24 ± 12,0.888 ± 0.012,876.01 ± 12,0.827 ± 0.011,875.94 ± 12,0.773 ± 0.011,873.1 ± 12,0.724 ± 0.011,870.15 ± 12,0.678 ± 0.01,867.32 ± 12,0.638 ± 0.01,864.31 ± 12,0.601 ± 0.01,860.14 ± 12,0.567 ± 0.01,857.98 ± 12,0.536 ± 0.009,854.05 ± 12,851.07 ± 12,viscosity [10]: 0.507 ± 0.009 mPa·s; viscosity [11]: 0.481 ± 0.009 mPa·s
CC/C=C\CCOC(=O)C(C)C [cis-3-hexenyl isobutyrate],885.08 ± 3.6,1.024 ± 0.023,878.12 ± 3.7,0.941 ± 0.021,873.61 ± 3.8,0.868 ± 0.02,870.34 ± 3.8,0.804 ± 0.018,865.22 ± 3.9,0.741 ± 0.017,861.49 ± 4,0.69 ± 0.016,857.38 ± 4,0.65 ± 0.016,852.44 ± 4.1,0.606 ± 0.015,848.44 ± 4.1,0.56 ± 0.014,845.31 ± 4.2,840.09 ± 4.3,viscosity [10]: 0.535 ± 0.014 mPa·s; viscosity [11]: 0.503 ± 0.013 mPa·s
CCOC(=O)C(C)CC (stereo not drawn) [ethyl 2-methylbutanoate],869.73 ± 7.4,0.831 ± 0.011,865 ± 7.4,0.774 ± 0.01,861.48 ± 7.5,0.723 ± 0.01,857.88 ± 7.5,0.677 ± 0.01,853.41 ± 7.5,0.635 ± 0.01,849.32 ± 7.5,0.597 ± 0.01,846.74 ± 7.5,0.563 ± 0.009,841.59 ± 7.5,0.532 ± 0.009,838.41 ± 7.5,0.503 ± 0.009,835.48 ± 7.6,831.46 ± 7.6,viscosity [10]: 0.476 ± 0.009 mPa·s; viscosity [11]: 0.452 ± 0.009 mPa·s
CCOC=O [ethyl methanoate],917.82 ± 2.8,0.402 ± 0.009,912.06 ± 2.9,0.381 ± 0.009,907.68 ± 2.9,0.362 ± 0.009,899.54 ± 3,0.345 ± 0.009,891.5 ± 3.2,0.329 ± 0.009,887.41 ± 3.2,0.314 ± 0.009,882.14 ± 3.3,0.3 ± 0.009,–,–,–,–,–,–,–
CCC/C=C/COC(C)=O [(E)-2-hexenyl acetate],897.84 ± 3,0.901 ± 0.012,894.32 ± 3.1,0.831 ± 0.011,891.78 ± 3.1,0.77 ± 0.011,888.46 ± 3.2,0.715 ± 0.011,884.35 ± 3.2,0.666 ± 0.01,880.19 ± 3.3,0.622 ± 0.01,876.14 ± 3.4,0.582 ± 0.01,872.81 ± 3.4,0.547 ± 0.01,867.49 ± 3.5,0.514 ± 0.009,–,–,–
CCCC(=O)OCCC(C)C [3-methylbutyl butanoate],866.13 ± 5.6,1.044 ± 0.014,862.04 ± 5.6,0.967 ± 0.013,859.14 ± 5.7,0.897 ± 0.013,857.08 ± 5.7,0.836 ± 0.012,853.42 ± 5.7,0.781 ± 0.012,850.11 ± 5.7,0.731 ± 0.011,845.78 ± 5.7,0.686 ± 0.011,842.31 ± 5.7,0.646 ± 0.011,840.73 ± 5.8,0.609 ± 0.01,835.45 ± 5.8,832.76 ± 5.8,viscosity [10]: 0.575 ± 0.01 mPa·s; viscosity [11]: 0.545 ± 0.01 mPa·s
CCCCCC(=O)OCC [ethyl hexanoate],879.01 ± 3.3,0.816 ± 0.011,872.53 ± 3.4,0.757 ± 0.011,869.31 ± 3.5,0.704 ± 0.011,866.74 ± 3.5,0.656 ± 0.01,863.28 ± 3.6,0.614 ± 0.01,860.19 ± 3.6,0.576 ± 0.01,856.42 ± 3.7,0.541 ± 0.01,851.93 ± 3.8,0.509 ± 0.009,847.88 ± 3.8,0.482 ± 0.009,845.32 ± 3.9,841.46 ± 4,viscosity [10]: 0.456 ± 0.009 mPa·s; viscosity [11]: 0.429 ± 0.009 mPa·s
CCOC(=O)CC [ethyl propanoate],891.62 ± 6.4,0.523 ± 0.009,884.1 ± 6.4,0.492 ± 0.009,879.31 ± 6.4,0.464 ± 0.009,874.12 ± 6.5,0.441 ± 0.009,870.61 ± 6.5,0.418 ± 0.009,867.34 ± 6.5,0.398 ± 0.009,864.33 ± 6.5,0.378 ± 0.009,860.89 ± 6.5,0.36 ± 0.009,858.14 ± 6.5,0.344 ± 0.008,856.81 ± 6.5,853.48 ± 6.5,viscosity [10]: 0.329 ± 0.008 mPa·s; viscosity [11]: 0.315 ± 0.008 mPa·s
CCCCCCOC(=O)CCC [hexyl butanoate],860.73 ± 3.6,–,851 ± 3.8,–,846.52 ± 3.9,–,841.51 ± 4,–,837.46 ± 4,–,834.65 ± 4.1,–,830.78 ± 4.1,–,828.19 ± 4.2,–,826.77 ± 4.2,–,823.81 ± 4.2,820.76 ± 4.3,viscosity (293.15 K): 1.351 ± 0.044 mPa·s; viscosity (298.15 K): 1.234 ± 0.04 mPa·s; viscosity (303.15 K): 1.131 ± 0.037 mPa·s; viscosity (308.15 K): 1.014 ± 0.033 mPa·s; viscosity (313.15 K): 0.961 ± 0.031 mPa·s; viscosity (318.15 K): 0.889 ± 0.029 mPa·s; viscosity (323.15 K): 0.825 ± 0.027 mPa·s; viscosity (328.15 K): 0.768 ± 0.025 mPa·s; viscosity (333.15 K): 0.716 ± 0.023 mPa·s; viscosity (338.15 K): 0.669 ± 0.022 mPa·s; viscosity (343.15 K): 0.627 ± 0.02 mPa·s
CC/C=C\CCOC=O [(Z)-3-hexenyl formate],909.15 ± 3,0.599 ± 0.012,908.13 ± 3,0.561 ± 0.012,906.6 ± 3.1,0.527 ± 0.011,904.95 ± 3.1,0.496 ± 0.011,903.17 ± 3.1,0.469 ± 0.011,901.19 ± 3.1,0.443 ± 0.01,898.99 ± 3.2,0.421 ± 0.01,896.72 ± 3.2,0.4 ± 0.01,894.16 ± 3.3,0.38 ± 0.01,891.54 ± 3.3,888.73 ± 3.3,viscosity [10]: 0.363 ± 0.01 mPa·s; viscosity [11]: 0.346 ± 0.01 mPa·s
CC/C=C\CCOC(C)=O [(Z)-3-hexenyl acetate],900.82 ± 2.9,0.893 ± 0.011,897.14 ± 3,0.823 ± 0.01,893.14 ± 3,0.763 ± 0.01,890.28 ± 3.1,0.708 ± 0.01,886.19 ± 3.2,0.66 ± 0.01,881.43 ± 3.2,0.616 ± 0.009,877.89 ± 3.3,0.576 ± 0.009,875.21 ± 3.4,0.542 ± 0.009,871.43 ± 3.4,0.509 ± 0.009,–,–,–

# Source: the NIST ThermoML archive (doi:10.1021/je050001c)
